# Test results taken from article PMC9354638, “Targeting p21-activated kinase 4 (PAK4) with pyrazolo[3,4-d]pyrimidine derivative SPA7012 attenuates hepatic ischaemia-reperfusion injury in mice” (Journal of Enzyme Inhibition and Medicinal Chemistry, 2022).
# Columns and labels:
# [1] = system: Nrf2 transcriptional activity (ARE); test: Nrf2 reporter gene assay (ARE luciferase) in HEK293T cells; assay type: cell-based, human; details: 24 h transfection
# Procedure: (§1) The human embryonic kidney cell line HEK293T was obtained from the American Type Culture Collection (Manassas, VA, USA). For the Nrf2 reporter gene assay, 1 μg of a plasmid containing a promoter with an ARE driving luciferase expression was used. Exogenous proteins were expressed by transfecting HEK293T cells with 1 μg of Nrf2 and PAK4 with Lipofectamine 3000 (Invitrogen, Carlsbad, CA, USA). Luciferase activity was measured using a Dual-Luciferase Reporter Assay (Promega, Madison, WI, USA) by Lumat LB 9507 (Berthold, Bad Wildbad, Germany).
# [2] = system: PAK4-mediated phosphorylation of Nrf2; test: Co-IP analysis of PAK4-mediated Nrf2 phosphorylation in HEK293T cells; assay type: cell-based, human; details: HEK293T cells overexpressing Nrf2 and PAK4, 24 h transfection
# Procedure: as §1
# Nuclear and cytoplasmic fractions were prepared using the NE-PER Nuclear and Cytoplasmic Extraction kit (Thermo Fisher Scientific, Waltham, MA, USA). Tissue homogenates or cell lysates (15 μg) were separated by 6–14% SDS-PAGE and transferred to PVDF membranes. […] Immunoreactive bands were detected with a Las-4000 imager (GE Healthcare Life Science, Pittsburgh, PA, USA).
# [3] = target: T1, PAK4 (Homo sapiens, UniProt O96013); test: HotSpot kinase assay (Reaction Biology Corp.), PAK4 enzyme inhibition; assay type: biochemical; details: ATP 10 μM
# T1 construct: purchased Reaction Biology Corporation (Malvern, PA, USA)
# T1 sequence (O96013 whole entry): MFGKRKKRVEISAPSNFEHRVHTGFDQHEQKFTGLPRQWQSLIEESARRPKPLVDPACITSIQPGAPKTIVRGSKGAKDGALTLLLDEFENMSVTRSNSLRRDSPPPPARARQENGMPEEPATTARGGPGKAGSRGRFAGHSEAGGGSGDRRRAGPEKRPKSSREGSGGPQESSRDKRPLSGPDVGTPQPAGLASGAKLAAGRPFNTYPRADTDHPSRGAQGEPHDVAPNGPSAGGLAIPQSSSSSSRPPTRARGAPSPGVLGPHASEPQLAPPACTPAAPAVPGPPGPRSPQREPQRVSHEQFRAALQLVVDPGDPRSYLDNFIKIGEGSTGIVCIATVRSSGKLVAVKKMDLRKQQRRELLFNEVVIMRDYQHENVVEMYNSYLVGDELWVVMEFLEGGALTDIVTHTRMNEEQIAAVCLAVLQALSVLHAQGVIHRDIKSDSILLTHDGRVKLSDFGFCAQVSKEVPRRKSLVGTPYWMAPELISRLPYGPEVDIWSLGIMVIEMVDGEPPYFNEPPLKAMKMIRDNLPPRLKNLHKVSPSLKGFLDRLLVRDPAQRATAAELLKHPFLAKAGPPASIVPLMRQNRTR
# Procedure: To examine the enzyme activity, HotSpot kinase assay was performed at Reaction Biology Corporation (Malvern, PA, USA). The kinase and substrate pairs were prepared in reaction buffer: 20 mM HEPES at pH 7.5, 10 mM MgCl2, 1 mM EGTA, 0.02% Brij 35, 0.02 mg/mL BSA, 0.1 mM Na3VO4, 2 mM DTT, and 1% DMSO. Compounds were added into the kinase reaction mixture and incubated for 20 min. Then, ^32 P-ATP was introduced to the mixture to initiate the reaction carried out at 10 μM of ATP concentration. After 2 h at room temperature, the mixture was spotted onto P81 ion exchange paper and kinase activity was then evaluated utilising the filter-binding method. Compounds were tested for single dose enzyme inhibition at a concentration of 20 μM. For the control compound, staurosporine was tested in a 10-dose IC50 mode. To determine the IC50 value, the compounds were tested for 10-doses with 3-fold serial dilution starting at 100 μM.
# Synthesised compounds were evaluated for their in vitro PAK4 enzyme inhibitory activities. In vitro kinase assays were performed using HotSpot kinase assays for relative enzyme inhibitory activity at a single concentration (20 μM) and IC50 assessment at an ATP concentration of 10 μM (Figure 1(B)). […] For the allosteric pocket binder, cyclohexyl group (SPA7012) was preferable to the smaller dimethyl (SPA7011) or hydroxymethyl group (SPA7013), and the aromatic ring (SPA7014) reduced activity compared to the saturated ring (SPA7012). In vitro enzyme IC50 values appeared in the order of SPA7012, SPA7017, and SPA7016. […] Molecular docking analysis was performed on the human PAK4 catalytic domain structure complexed with GNE-2861 (PDB code: 4O0V). The binding pose of SPA7012 overlapped well with the crystal structure of GNE-2861, with the allosteric binder properly positioned in the specific back pocket. The oxygen atom in the tertiary alcohol of the hydrophobic allosteric binder formed hydrogen bonds with the backbone of Phe459 and the side chain of Glu366 (Figure 1(D)). The amine group and nitrogen atom in the pyrazolo[3,4-d]pyrimidine core scaffold also formed hydrogen bonds with Lue398 at the hinge region. Finally, SPA7012 was decided as a lead compound for further examination with satisfactory potency and subtype selectivity.
# [4] = system: primary hepatocytes; test: MTT assay for cell viability; assay type: cell-based, mouse; details: SPA7012 at a concentration of less than 1 μM
# Procedure: Primary hepatocytes were prepared from 8 to 10 week old C57BL/6 male mice by perfusion. […] Hepatocytes were resuspended in DMEM/F12 supplemented with 10% FBS, 10 units/mL penicillin, 10 μg/mL streptomycin, and 10 nM dexamethasone mixed with 42% Percoll, and then centrifuged for 5 min at 1,300 rpm. The cells were plated at 1 × 10^6 cells/well in 6-well culture dishes.
# Cell viability was determined by analysing the reduction of 3–(4, 5-dimethylthiazol-2-yl)-2, 5-diphenyltetrazolium bromide (MTT) to formazan.
compound,measurement,setting,value
"Cc1nn(-c2cccc(C#CC3(O)CCCCC3)c2)c2ncnc(N)c12 [Compound 14b, 3-(4-Amino-3-methylpyrazolo[3,4-d]pyrimidin-1-yl)phenylethynylcyclohexan-1-ol]",Nrf2 transcriptional activity (ARE luciferase activity),[1],increased
same,PAK4-mediated phosphorylation of Nrf2 at threonine residue,[2],effectively inhibited
same,IC50,"[3]; 10-dose, 3-fold serial dilution starting at 100 μM",770 nM
same,inhibition at 20 µM,"[3]; relative percentage inhibition at 20 μM of compounds with staurosporine, read-out: PAK4 enzyme inhibition % inhibitory activity",97%
same,Effect on cell viability (MTT),[4],little effect
